Measured values taken from ChEMBL document CHEMBL3621121, “Modeling, synthesis and NMR characterization of novel chimera compounds targeting STAT3” (Medchemcomm, 2014).

Key:
[1] = target: Signal transducer and activator of transcription 3 (Homo sapiens) (UniProt P40763); experiment: Inhibition of STAT3 in human HCT116 cells at 10 uM after 24 hrs by firefly and renilla dual luciferase assay; type: cell-based; conditions: HCT-116
[2] = target: Signal transducer and activator of transcription 3 (Homo sapiens) (UniProt P40763); experiment: Inhibition of STAT3 in human HCT116 cells at 50 uM after 24 hrs by firefly and renilla dual luciferase assay; type: cell-based; conditions: HCT-116
[3] = target: Signal transducer and activator of transcription 3 (Homo sapiens) (UniProt P40763); experiment: Inhibition of SH2 domain of STAT3 (unknown origin) using (FITC)-GpYLPQTV after 90 mins by AlphaScreen bead-based nonradioactive assay

Chain of Signal transducer and activator of transcription 3 (Homo sapiens) (P40763 whole entry, the tested form may be a part): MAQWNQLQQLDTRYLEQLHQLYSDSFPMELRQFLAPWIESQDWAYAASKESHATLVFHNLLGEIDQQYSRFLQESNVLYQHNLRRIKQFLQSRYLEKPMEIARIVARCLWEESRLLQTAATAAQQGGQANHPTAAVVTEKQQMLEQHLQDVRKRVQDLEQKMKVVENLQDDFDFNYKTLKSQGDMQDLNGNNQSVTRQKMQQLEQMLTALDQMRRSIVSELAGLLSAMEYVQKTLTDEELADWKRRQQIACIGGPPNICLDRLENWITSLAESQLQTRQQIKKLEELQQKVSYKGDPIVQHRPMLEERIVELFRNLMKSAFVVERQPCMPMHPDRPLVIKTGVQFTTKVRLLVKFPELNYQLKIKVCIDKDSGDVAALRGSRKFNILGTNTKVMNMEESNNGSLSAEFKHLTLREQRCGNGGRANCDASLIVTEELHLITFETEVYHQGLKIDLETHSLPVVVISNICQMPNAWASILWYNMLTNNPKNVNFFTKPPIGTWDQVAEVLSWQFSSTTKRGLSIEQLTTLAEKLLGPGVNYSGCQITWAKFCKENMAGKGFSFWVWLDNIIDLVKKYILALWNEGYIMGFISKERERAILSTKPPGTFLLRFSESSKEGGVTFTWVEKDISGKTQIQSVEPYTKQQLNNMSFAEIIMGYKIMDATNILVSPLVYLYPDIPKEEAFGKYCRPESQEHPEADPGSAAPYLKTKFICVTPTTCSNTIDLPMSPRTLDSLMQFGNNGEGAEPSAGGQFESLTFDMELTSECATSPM

Compound	inhibition [1]	inhibition [2]	inhibition [3]
C[C@H]1COC2=C1C(=O)C(=O)c1c2ccc2c1CCCC2(C)C	78%	85%	
O=C(Nc1ccc(C(F)(F)F)cc1)C1Cc2cc(=O)[nH]nc2-c2ccccc21 (racemic)	2%	7%	
O=C1CC2CC(C(=O)Nc3ccc(C(F)(F)F)cc3)c3ccccc3C2=NN1 (racemic; 1)	-3%	6%	
O=C1CC2CC(C(=O)Nc3ccc(C(F)(F)F)cc3)c3ccccc3C2=NN1 (racemic; 2)	-6%	3%	
O=C1CC2CC(C(=O)Nc3ccc(C(F)(F)F)cc3)c3ccccc3C2=NN1 (single isomer, unassigned; (+)-1)	9%	35%	< 5%
O=C1CC2CC(C(=O)Nc3ccc(C(F)(F)F)cc3)c3ccccc3C2=NN1 (single isomer, unassigned; (+)-2a)	-8%	12%	
O=C(Nc1ccc(C(F)(F)F)cc1)C1Cc2cc(=O)[nH]nc2-c2ccccc21 (single isomer, unassigned; (-))	2%	30%	
O=C1CC2CC(C(=O)Nc3ccc(C(F)(F)F)cc3)c3ccccc3C2=NN1 (single isomer, unassigned; (-)-1)	9%	14%	
O=C1CC2CC(C(=O)Nc3ccc(C(F)(F)F)cc3)c3ccccc3C2=NN1 (single isomer, unassigned; (-)-2b)	1%	16%	
O=C(Nc1ccc(C(F)(F)F)cc1)C1Cc2cc(=O)[nH]nc2-c2ccccc21 (stereo in doubt; (+)-3a)	-2%	24%	
